Assay results taken from ChEMBL document CHEMBL5625183, “Discovery of a novel dual-target inhibitor of CDK12 and PARP1 that induces synthetic lethality for treatment of triple-negative breast cancer” (Eur J Med Chem, 2023).
Calls of active or inactive are those of the source. The calls are words filed in the database; no cut-off is given here.

Key:
[1] = Metabolic stability in BALB/c mouse liver microsome assessed as half life in presence of NADPH incubated upto 60 mins by LC-MS/MS analysis; format: ADME; conditions: liver microsomes
[2] = target: Transcription initiation factor TFIID subunit 1-like (Homo sapiens) (UniProt Q8IZX4); assay: Inhibition of TAF1L (unknown origin) at 1 uM relative to control
Transcription initiation factor TFIID subunit 1-like (Homo sapiens), sequence (Q8IZX4 whole entry): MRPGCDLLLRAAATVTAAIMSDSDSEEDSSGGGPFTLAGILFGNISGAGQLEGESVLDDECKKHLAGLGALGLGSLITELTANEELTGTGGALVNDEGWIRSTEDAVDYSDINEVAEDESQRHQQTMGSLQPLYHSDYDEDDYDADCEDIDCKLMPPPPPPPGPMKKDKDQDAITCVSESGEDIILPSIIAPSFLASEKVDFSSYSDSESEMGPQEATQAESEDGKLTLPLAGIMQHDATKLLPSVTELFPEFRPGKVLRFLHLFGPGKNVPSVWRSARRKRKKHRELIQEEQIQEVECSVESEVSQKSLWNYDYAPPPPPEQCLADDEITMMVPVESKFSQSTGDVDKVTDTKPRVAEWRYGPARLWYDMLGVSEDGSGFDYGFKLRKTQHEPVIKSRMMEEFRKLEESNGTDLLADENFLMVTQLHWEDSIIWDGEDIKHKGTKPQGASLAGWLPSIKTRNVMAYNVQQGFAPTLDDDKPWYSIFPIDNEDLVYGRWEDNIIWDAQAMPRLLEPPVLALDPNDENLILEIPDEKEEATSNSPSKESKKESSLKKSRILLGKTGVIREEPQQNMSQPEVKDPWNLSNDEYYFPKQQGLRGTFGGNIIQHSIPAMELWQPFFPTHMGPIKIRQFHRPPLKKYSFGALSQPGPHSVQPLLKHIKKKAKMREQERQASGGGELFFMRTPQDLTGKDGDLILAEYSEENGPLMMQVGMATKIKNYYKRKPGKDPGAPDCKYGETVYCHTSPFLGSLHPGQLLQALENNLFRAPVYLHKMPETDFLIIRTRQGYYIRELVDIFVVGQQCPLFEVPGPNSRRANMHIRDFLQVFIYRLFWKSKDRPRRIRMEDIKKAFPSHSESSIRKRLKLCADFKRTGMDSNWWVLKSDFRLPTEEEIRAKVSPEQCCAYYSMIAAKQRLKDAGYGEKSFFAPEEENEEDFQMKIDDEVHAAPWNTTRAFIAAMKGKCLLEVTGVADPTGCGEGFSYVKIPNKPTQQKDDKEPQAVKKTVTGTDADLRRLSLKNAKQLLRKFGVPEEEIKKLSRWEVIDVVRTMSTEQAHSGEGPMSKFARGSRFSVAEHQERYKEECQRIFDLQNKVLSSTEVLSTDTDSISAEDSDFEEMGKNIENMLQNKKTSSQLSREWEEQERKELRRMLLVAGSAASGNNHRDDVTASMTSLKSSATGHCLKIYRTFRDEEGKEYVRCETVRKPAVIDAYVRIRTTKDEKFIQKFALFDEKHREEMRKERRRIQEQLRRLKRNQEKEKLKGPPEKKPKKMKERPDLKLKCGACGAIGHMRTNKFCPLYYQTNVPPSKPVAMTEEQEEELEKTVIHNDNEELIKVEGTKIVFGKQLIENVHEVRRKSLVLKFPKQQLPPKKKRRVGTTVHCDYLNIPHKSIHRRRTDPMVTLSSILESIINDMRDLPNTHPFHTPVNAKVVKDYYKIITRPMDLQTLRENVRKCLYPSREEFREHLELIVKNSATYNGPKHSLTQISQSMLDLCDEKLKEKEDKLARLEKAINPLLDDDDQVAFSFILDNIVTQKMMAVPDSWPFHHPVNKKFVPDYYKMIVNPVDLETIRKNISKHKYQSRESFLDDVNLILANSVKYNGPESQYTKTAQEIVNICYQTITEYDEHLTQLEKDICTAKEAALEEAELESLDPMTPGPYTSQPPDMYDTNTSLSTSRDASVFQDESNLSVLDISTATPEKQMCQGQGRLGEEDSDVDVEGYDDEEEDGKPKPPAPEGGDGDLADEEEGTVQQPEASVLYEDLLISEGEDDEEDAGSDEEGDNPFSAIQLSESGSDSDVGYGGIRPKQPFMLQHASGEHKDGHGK

[3] = target: Cyclin-dependent kinase 1 (Homo sapiens, UniProt P06493); assay: Inhibition of CDK1 (unknown origin) at 1 uM relative to control
Cyclin-dependent kinase 1, sequence (P06493 whole entry, looked up): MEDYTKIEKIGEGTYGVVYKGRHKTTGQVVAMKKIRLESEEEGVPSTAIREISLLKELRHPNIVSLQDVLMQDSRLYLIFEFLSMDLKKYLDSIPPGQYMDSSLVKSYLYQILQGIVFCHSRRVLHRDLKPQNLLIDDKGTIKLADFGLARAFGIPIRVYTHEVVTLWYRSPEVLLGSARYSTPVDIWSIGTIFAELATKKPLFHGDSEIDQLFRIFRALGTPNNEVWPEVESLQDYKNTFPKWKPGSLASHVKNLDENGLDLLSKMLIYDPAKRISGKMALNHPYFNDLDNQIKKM

[4] = target: MAP kinase-activated protein kinase 2 (Homo sapiens) (UniProt P49137); assay: Inhibition of MAPK2 (unknown origin) at 1 uM relative to control
MAP kinase-activated protein kinase 2 (Homo sapiens), sequence (P49137 whole entry, looked up): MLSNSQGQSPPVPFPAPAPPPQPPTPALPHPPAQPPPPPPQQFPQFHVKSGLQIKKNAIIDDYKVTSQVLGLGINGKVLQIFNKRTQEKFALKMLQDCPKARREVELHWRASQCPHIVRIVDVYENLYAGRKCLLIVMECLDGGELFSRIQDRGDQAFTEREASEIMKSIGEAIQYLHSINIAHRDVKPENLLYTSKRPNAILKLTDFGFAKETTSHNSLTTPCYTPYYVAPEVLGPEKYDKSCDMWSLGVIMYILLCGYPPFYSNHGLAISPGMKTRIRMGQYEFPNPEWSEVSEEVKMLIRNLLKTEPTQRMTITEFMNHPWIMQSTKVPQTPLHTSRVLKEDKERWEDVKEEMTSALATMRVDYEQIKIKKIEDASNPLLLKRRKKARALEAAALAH

[5] = target: Cyclin-dependent kinase 2 (Homo sapiens, UniProt P24941); assay: Inhibition of CDK2 (unknown origin)
[6] = target: Poly [ADP-ribose] polymerase 1 (Homo sapiens, UniProt P09874); assay: Binding affinity to PARP1 in human MDA-MB-231 cells assessed as increase in protein thermal stabilization at 10 uM incubated for 6 hrs by CETSA based Western blot analysis; format: cell-based
Poly [ADP-ribose] polymerase 1, sequence (P09874 whole entry): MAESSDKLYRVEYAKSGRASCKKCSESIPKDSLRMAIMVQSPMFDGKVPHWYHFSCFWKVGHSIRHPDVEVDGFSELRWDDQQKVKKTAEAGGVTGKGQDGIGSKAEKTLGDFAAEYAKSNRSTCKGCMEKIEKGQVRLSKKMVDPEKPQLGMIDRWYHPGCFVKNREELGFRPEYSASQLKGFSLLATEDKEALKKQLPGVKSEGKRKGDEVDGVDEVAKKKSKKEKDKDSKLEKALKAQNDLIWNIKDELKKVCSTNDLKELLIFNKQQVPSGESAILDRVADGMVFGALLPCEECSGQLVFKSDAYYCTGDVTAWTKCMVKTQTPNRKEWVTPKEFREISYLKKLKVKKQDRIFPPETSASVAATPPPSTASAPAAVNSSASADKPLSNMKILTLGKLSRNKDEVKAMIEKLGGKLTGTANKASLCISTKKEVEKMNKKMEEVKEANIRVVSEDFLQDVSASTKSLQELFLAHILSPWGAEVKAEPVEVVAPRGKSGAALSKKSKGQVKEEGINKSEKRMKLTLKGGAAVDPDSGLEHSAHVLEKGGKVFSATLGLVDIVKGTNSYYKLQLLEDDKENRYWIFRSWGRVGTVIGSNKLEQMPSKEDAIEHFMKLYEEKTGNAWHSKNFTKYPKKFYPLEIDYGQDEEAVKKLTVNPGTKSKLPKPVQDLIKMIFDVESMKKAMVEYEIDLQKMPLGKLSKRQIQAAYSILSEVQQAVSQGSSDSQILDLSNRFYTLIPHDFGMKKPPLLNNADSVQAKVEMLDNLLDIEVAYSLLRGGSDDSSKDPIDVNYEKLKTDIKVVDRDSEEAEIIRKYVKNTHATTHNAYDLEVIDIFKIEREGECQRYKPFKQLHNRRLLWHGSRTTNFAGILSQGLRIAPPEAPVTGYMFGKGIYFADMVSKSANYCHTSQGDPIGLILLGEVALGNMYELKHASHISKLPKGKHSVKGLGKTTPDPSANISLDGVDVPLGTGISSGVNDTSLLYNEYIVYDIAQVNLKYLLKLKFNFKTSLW

MDA-MB-436 [7] = assay: Antiproliferative activity against human MDA-MB-436 cells transfected with wild type PARP1 and CDK12 M816A mutant incubated for 24 hrs by MTT assay; format: functional, cell-based
MDA-MB-231 [8] = assay: Upregulation of gamma-H2AX expression in human MDA-MB-231 cells incubated for 24 hrs by Western blot analysis; format: functional, cell-based; conditions: dose <= 20.0 µM
MDA-MB-468 [9] = assay: […] DNA repair in human MDA-MB-468 cells assessed as […] formation at 10 uM incubated for 24 hrs by confocal laser scanning microscopic analysis; format: functional, cell-based
MDA-MB-231 [10] = assay: Induction of cell cycle arrest in human MDA-MB-231 cells assessed as accumulation of cells at G2 phase at 10 uM measured after 24 hrs by PI staining based cytometry analysis (reference value: 8.44 %); format: functional
MDA-MB-231 [11] = assay: Induction of cell cycle arrest in human MDA-MB-231 cells assessed as accumulation of cells at S phase at 10 uM measured after 24 hrs by PI staining based cytometry analysis (reference value: 23.01 %); format: functional
MDA-MB-436 [12] = assay: Induction of cell cycle arrest in human MDA-MB-436 cells assessed as accumulation of cells at G1 phase at 10 uM measured after 24 hrs by PI staining based cytometry analysis (reference value: 72.04%); format: functional
MDA-MB-436 [13] = assay: Induction of cell cycle arrest in human MDA-MB-436 cells assessed as accumulation of cells at G2 phase at 20 uM measured after 24 hrs by PI staining based cytometry analysis (reference value: 2.54%); format: functional
MDA-MB-231 [14] = assay: Antiproliferative activity against human MDA-MB-231 cells assessed as reduction in EDU-positive cells at 10 uM […]-staining based analysis; format: functional, cell-based
MDA-MB-231 [15] = assay: Inhibition of cell migration in human MDA-MB-231 cells assessed as upregulation of E-cadherin level by measuring fluorescence intensity at 10 uM incubated for 24 hrs by confocal microscopic analysis; format: functional, cell-based
MDA-MB-468 [16] = assay: Inhibition of cell migration in human MDA-MB-468 cells assessed as downregulation of MMP-2 level by measuring fluorescence intensity at 10 uM incubated for 24 hrs by confocal microscopic analysis; format: functional, cell-based
MDA-MB-468 [17] = assay: Induction of apoptosis in human MDA-MB-468 cells assessed as upregulation of Bax expression incubated for 24 hrs; format: functional, cell-based; conditions: dose 5-20 µM
MDA-MB-231 [18] = assay: Antitumor activity against human MDA-MB-231 cells xenografted in BALB/c mouse assessed as reduction in Ki67 expression at 20 to 80 mg/kg, ip administered once daily for 16 days by meyers hematoxylin staining based IHC analysis; format: functional, organism-based; conditions: dose 20-80 mg/kg, time 16.0 day
[19] = Toxicity in BALB/c mouse xenografted with human MDA-MB-231 cells assessed as morphological changes in lung at 20 to 80 mg/kg, ip administered once daily for 16 days by H and E staining based analysis; format: organism-based; conditions: in vivo, 384 h, dose 20-80 mg/kg, time 16 day

NC(=O)c1cccc2[nH]c(NC(=O)c3cccc(C(=O)N4CCC(Nc5ncc(I)cn5)CC4)c3)nc12
half-life [1]: 1.88 h | inhibition [2]: > 60% | inhibition [3]: > 60% | inhibition [4]: > 60% | IC50 [5]: 0.689 µM | Activity [6]: Active | Activity (MDA-MB-436 [7]): Active | Activity (MDA-MB-231 [8]): Dose-Dependent Effect | Activity (MDA-MB-468 [9]): Active | Activity (MDA-MB-231 [10]): 20.35% | Activity (MDA-MB-231 [11]): 17.93% | Activity (MDA-MB-436 [12]): 66.94% | Activity (MDA-MB-436 [13]): 15.05% | Activity (MDA-MB-231 [14]): Active | inhibition (MDA-MB-231 [15]): Active | inhibition (MDA-MB-468 [16]): Active | Activity (MDA-MB-468 [17]): Dose-Dependent Effect | Activity (MDA-MB-231 [18]): Active | Activity [19]: Non-Toxic
